Laboratory results from patent publication US10464930B2, “Compositions and methods for treating estrogen-related medical disorders” (THE BOARD OF TRUSTEES OF THE UNIVERSITY OF ILLINOIS, priority 2012, dated 2019).
Read-outs that look alike come from different tables or passages of the source.

Tests used:
[1] = system: LTP in the CA1 region of hippocampal sections; assay: LTP after theta burst stimulation in hippocampal slices; set-up: species or system mouse; details: for end average potentiation of fEPSP (LTP): 30 min prior to TBS, slices of 16-month male 3×Tg mice
Description: LTP was measured after TBS in the CA1 region of hippocampal sections from 16 month male 3×Tg mice or WT controls. Test compounds (SERMs 100 nM; G15 100 nM) were added 30 min prior to TBS. […] (C) Secondary analysis of theta bursts indicate action both during induction and stabilization of LTP, through a GPR30 dependent mechanism.
LTP was measured after TBS in the CA1 region of hippocampal sections from 8 month old male C57Bl/6 mice. G15 (100 nM) was added 30 min prior to TBS and continued throughout. G15 had no effect on LTP, which reached levels equal to WT background in FIG. 2 for both controls and G15.
LTP was measured in the CA1 region of hippocampal sections from 16 month male 3×Tg mice using the method detailed in manuscript, with the exception of a variable interburst interval during TBS. ODQ (10 nM) was added 30 min prior to TBS and continued throughout.
Electrophysiology. All experiments used 16-month old male 3×Tg transgenic or age-matched WT background controls. For electrophysiology, mice were rapidly decapitated, and brains were removed into an ice-cold aCSF solution (in mM: NaCl 124, KCl 3.0, KH2PO4 1.25, NaHCO3 25.7, D-glucose 10, L-ascorbate 2.0, MgSO4 2.5, and CaCl2 3.3) and sectioned on a tissue chopper into 400 um sections. Slices were transported to a 37° C. solution of aCSF, continuously bubbled with 95% O2/5% CO2, and allowed to recover at least 60 min before experimentation. After placement of a stimulation electrode in the Schaffer commissural fibers and recording electrodes with 2 M NaCl solution into the stratum radiatum of the CA1 area, stimulus intensity was set to evoke submaximal fEPSP and continuously monitored at 20 s intervals for at least 15 min to establish a stable baseline. SERMs (100 nM) and G15 (100 nM) were prepared fresh in perfusate and started at least 30 min before LTP induction to reach a new baseline after enhancement of basal synaptic transmission was observed(97). LTP was induced using a theta burst induction protocol by applying 10 bursts of four pulses at 100 Hz with an interburst interval of 200 msec. Resulting fEPSP was monitored at 20 s intervals for […] post TBS.
Long-term potentiation (LTP) in the CA1 field of the hippocampus is a well-studied cellular model for learning and memory. […] At 16 months, an advanced age at which Alzheimer's-like neuropathology is well developed in these animals, studies on LTP have not previously been reported. We observed a robust, reproducible deficit in LTP in these aged transgenic mice, with field excitatory post-synaptic potentials (fEPSP) showing an end average potentiation of 97.0±6.4% of baseline at 45 min post-TBS, compared to 134.7±10.3% observed in the wild type (WT) controls (FIG. 2A,B).
To determine if drugs enhanced LTP by altering physiological responses during LTP induction, such as NMDA receptor-mediated currents or downstream events involved in expression or stabilization, the postsynaptic responses to theta bursts were quantified as previously described (56, 57).

[2] = system: scopolamine- or L-NAME-induced memory deficit; assay: Step through passive avoidance (STPA); type: in vivo, mouse; details: for reversal of scopolamine-induced memory deficit (STPA latency): 2 mg/kg i.p. 20 min prior to training, scopolamine 1 mg/kg, C57Bl/6, 24 h; for reversal of L-NAME-induced cognitive deficit (STPA) / reversal of scopolamine-induced deficit in eNOS KO mice (STPA): 2 mg/kg; for reversal of L-NAME-induced cognitive deficit (STPA): L-NAME 50 mg/kg 30 min prior to training
[3] = system: NO levels (NOx) in plasma and hippocampus; assay: NOx measurement in plasma and CNS by chemiluminescence; type: in vivo, mouse; details: 2 mg/kg; for NOx in plasma or hippocampus, eNOS(−/−): eNOS(−/−) animals; for NOx in hippocampus and plasma, WT: one hour after injection, WT mice
Description: Levels of NO were assessed by measuring breakdown products 1 h after i.p. injection of SERMs (2 mg/kg) using chemiluminescence detection.
(§1) CNS Bioavailability & NOX Measurement. All experiments were performed on either male C57B1/6 mice (Charles River Laboratory) or eNOS(−/−) animals. Animals were injected (i.p.) at various time points before sacrifice at the doses specified. After euthanasia via CO2, plasma was collected, and cortices and hippocampi were collected after PBS perfusion and stored at −80° C. Tissue samples were weighed and extracted with methanol. Plasma samples were extracted with cold acetonitrile. Quantitative analysis of drug concentrations in plasma and brain used internal standards spiked into plasma and brain homogenates before liquid extraction with acetonitrile or methanol, and separation and measurement was performed with LC-MS/MS tandem mass spectrometry. The supernatant (deproteinized) was analyzed by chemiluminescence with SIEVERS 280i nitric oxide analyzer.
(§2) Brain and plasma NO levels were assessed by measuring metabolic oxidation products, NO2^− and NO3^− (NOx), using chemiluminescence detection. […] To assess the relative contribution of eNOS, DMA and NO-DMA were administered to eNOS(−/−) animals.

[4] = system: primary cortical neurons exposed to OGD; assay: Oxygen glucose deprivation (OGD) neuroprotection, MTT; type: cell-based, rat; details: for neuroprotection (cell survival by MTT): 2 h OGD, survival at 24 h, SERMs 100 nM, normalized to E2 10 nM; for neuroprotective activity with GPR30 antagonist: plus G15 (100 nM); for neuroprotective activity with GPR blocker: plus pertussis toxin (100 ng/mL)
[5] = system: isolated aortic rings; assay: Aortic ring relaxation
[6] = system: clotting cascades (PT, aPTT); assay: Anticoagulation: PT and aPTT after i.p. dosing; type: in vivo, mouse; details: for anticoagulation with impaired NOS function: 2 mg/kg 1 h prior, L-NAME 50 mg/kg 30 m prior to collection; for PT / aPTT / anticoagulant effect at 3 h: 2 mg/kg i.p.; for PT / aPTT: 1 h
Description: Blood was collected by cardiac puncture and PTT and aPTT were determined 1 or 3 h after i.p. drug administration (2 mg/kg).
Anticoagulation. SERMs were injected (i.p.) 1 h before blood collection, and L-NAME was injected (i.p.) 30 min before blood collection. The mouse was sedated by exposing it to CO2 until unconscious and blood was collected in 4.5 mL BD Vacutainer Glass Evacuated Blood Collection Tubes (with 0.105 M buffered sodium citrate) by cardiac puncture. The blood samples were centrifuged at 300 g for 30 min to separate the plasma from the blood, and then 200 uL of plasma was taken from each sample and the PT and aPTT were measured using an ACL 7000 Coagulation Analyzer. The analyzer injects […] of PT-fibrinogen (lyophilized rabbit brain calcium thromboplastin with stabilizers, polybrene, buffer and preservatives) to 75 μL of plasma sample to measure the PT, and 75 μL of synthAFAX (0.025 M)+100 μL of CaCl2 (0.02 M) were added to 75 μL of plasma to measure aPTT. The analysis was at 37° C. using a photo sensor at λ=671 nm.

[7] = CNS bioavailability by LC-MS/MS; type: in vivo, mouse; details: 5 mg/kg i.p., up to 2 h after administration
Description: as §1, §2

[8] = molecular target: T1, ERα (Homo sapiens, UniProt P03372); assay: ER ligand binding by competitive E2 displacement (ERα)
T1 sequence (P03372 1-595): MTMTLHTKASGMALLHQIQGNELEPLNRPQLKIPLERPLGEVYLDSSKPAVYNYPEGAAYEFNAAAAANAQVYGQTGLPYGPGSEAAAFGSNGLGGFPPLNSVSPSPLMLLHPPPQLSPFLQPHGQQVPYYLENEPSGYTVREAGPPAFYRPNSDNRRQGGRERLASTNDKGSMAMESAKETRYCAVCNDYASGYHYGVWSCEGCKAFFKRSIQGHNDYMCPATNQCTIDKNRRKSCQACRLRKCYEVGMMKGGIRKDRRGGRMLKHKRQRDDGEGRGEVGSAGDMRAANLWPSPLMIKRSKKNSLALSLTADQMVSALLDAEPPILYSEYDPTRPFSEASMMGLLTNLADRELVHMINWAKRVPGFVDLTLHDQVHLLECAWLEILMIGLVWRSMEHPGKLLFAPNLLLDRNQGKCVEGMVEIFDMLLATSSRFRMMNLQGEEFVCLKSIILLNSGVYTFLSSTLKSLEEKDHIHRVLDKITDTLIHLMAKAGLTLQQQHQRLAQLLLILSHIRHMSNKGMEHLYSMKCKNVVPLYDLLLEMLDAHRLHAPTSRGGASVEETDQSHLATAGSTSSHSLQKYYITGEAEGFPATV

[9] = molecular target: ERβ (Homo sapiens, UniProt Q92731); assay: ER ligand binding by competitive E2 displacement (ERβ)
[10] = Rattus norvegicus, read-out: EC50 for relaxation

Sequence of ERβ (Q92731 whole entry, species assumed): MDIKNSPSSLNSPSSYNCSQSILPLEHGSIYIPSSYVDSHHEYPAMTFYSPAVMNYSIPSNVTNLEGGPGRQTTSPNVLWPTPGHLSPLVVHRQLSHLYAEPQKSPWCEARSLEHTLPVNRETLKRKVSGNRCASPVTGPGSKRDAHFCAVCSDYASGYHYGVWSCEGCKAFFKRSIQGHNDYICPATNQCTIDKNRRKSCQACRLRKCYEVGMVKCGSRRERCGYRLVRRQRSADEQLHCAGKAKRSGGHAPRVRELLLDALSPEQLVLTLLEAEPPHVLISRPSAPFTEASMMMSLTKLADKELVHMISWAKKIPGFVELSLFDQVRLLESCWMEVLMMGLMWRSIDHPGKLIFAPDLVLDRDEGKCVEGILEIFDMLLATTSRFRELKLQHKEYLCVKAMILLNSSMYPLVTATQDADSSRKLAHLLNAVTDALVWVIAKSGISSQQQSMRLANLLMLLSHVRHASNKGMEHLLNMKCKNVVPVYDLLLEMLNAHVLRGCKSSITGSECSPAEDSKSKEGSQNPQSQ

SMILES | enhancement of subsequent theta bursts during LTP induction ([1]; 100 nM, 3×Tg slices) | end average potentiation of fEPSP (LTP) ([1]; 100 nM) | reversal of scopolamine-induced memory deficit (STPA latency) [2] | reversal of L-NAME-induced cognitive deficit (STPA) [2] | reversal of scopolamine-induced deficit in eNOS KO mice (STPA) [2] | NOx in plasma or hippocampus, eNOS(−/−) [3] | NOx in hippocampus and plasma, WT [3] | neuroprotection (cell survival by MTT) [4] | neuroprotective activity with GPR30 antagonist [4] | neuroprotective activity with GPR blocker [4] | EC50 [5, 10] [nM] | efficacy (relaxation) ([5]; intact aortic rings) [%] | anticoagulation with impaired NOS function [6] | PT [6] | aPTT [6] | anticoagulant effect at 3 h [6] | also measured
Brc1cc2c(cc1[C@@H]1Nc3ccccc3[C@@H]3C=CC[C@@H]31)OCO2 [Compound G15] | – | – | – | – | – | – | – | – | – | – | – | – | – | – | – | – | effect on LTP in WT slices ([1]; 100 nM, WT C57Bl/6 slices, absence of DMA): no effect
Oc1ccc(-c2sc3cc(O)ccc3c2Oc2ccc(OCCN3CCCCC3)cc2)cc1 [DMA, desmethylarzoxifene] | augmented | 144.9±8.7 % of baseline | restored the cognitive deficit | not able to restore cognition | not able to restore cognition | no effect | greater than twofold elevation | robust neuroprotection | blocked | blocked | 3500 ± 2500 | ~100 | did not persist in the presence of NOS blockade | increased PT | significantly increased | decreased to that of control samples | end fEPSP (LTP) with GPR30 blocker ([1]; DMA 100 nM plus G15 (100 nM), 3×Tg slices): 96.8±7.10%; effect on LTP with ODQ ([1]; plus ODQ (10 nM), 3×Tg slices, preliminary): ODQ blocks effect of DMA; efficacy after endothelium removal or NOS inhibition ([5]; removal of the endothelium or L-NAME): significant decrease in the efficacy; brain regional retention [7]: preferential retention in the hippocampus over the cortex
Oc1ccc2c(Oc3ccc(OCCN4CCCCC4)cc3)c(-c3ccc(F)cc3)sc2c1 [F-DMA] | – | – | – | – | – | – | – | – | – | – | – | – | – | – | – | – | IC50 ([8]; competitive E2 displacement): 17 ± 0.6 nM; EC50 ([5]; read-out: EC50 for relaxation, intact aortic rings, mean, S.D.): 2400 ± 1200 nM
O=[N+]([O-])OCCCC1CCN(CCOc2ccc(Oc3c(-c4ccc(O)cc4)sc4cc(O)ccc34)cc2)CC1 [NO-DMA, 3-(1-(2-(4-(6-hydroxy-2-(4-hydroxyphenyl)benzo[b]thiophen-3-yloxy)phenoxy)ethyl)piperidin-4-yl)propyl nitrate] | augmented | 144.2±5.2 % of baseline | equivalent restoration of protection to DMA | reversed only by NO-DMA | only NO-DMA showed efficacy | increase NOx significantly | greater than twofold elevation | robust neuroprotection identical to DMA | blocked | blocked | 130 ± 90 | – | significant anticoagulation compared to control | increased PT, but only NO-DMA reached significance | significantly increased | remained significantly higher than control | IC50 [8]: 21.4 ± 6.7 nM; neuroprotection with ERα blockade ([4]; plus ICI 182780 (100 nM), added 45 min prior to OGD): did not block this effect; attenuation of neuroprotective activity by NOS antagonist ([4]; plus L-NAME (100 μM)): ineffective; attenuation of neuroprotective activity by PI3K inhibitor ([4]; plus LY294002 (10 μM)): effective; EC50 ([5]; Rattus norvegicus, read-out: EC50 for relaxation, L-NAME): 1000 ± 540 nM; EC50 ([5]; Rattus norvegicus, read-out: EC50 for relaxation, endothelium-denuded): 900 ± 690 nM; maximal relaxation response ([5]; intact aortic rings): induced maximal relaxation; potency relative to DMA ([5]; intact aortic rings): at least ten-fold increased potency; IC50 [9]: 24.4 ± 9.6 nM
COc1ccc(-c2sc3cc(O)ccc3c2Oc2ccc(OCCN3CCCCC3)cc2)cc1 [arzoxifene] | – | – | restored the cognitive deficit | – | – | – | – | – | – | – | 3300 ± 2500 | – | – | – | – | – | –
O=C(c1ccc(OCCN2CCCCC2)cc1)c1c(-c2ccc(O)cc2)sc2cc(O)ccc12 [raloxifene, Raloxifene] | – | – | restored the cognitive deficit | – | – | – | – | – | – | – | 4000 ± 2900 | ~100 | – | – | – | – | –
